Consider 4 compounds from patent publication US12485116B2, “Pharmaceutical composition for preventing or treating epidemic RNA viral infectious disease” (priority 2020, dated 2025).

Series [1] deals with Ebola virus. As to conditions: guinea pig models infected with Ebola virus; cited from earlier work.
For series [2], the system named is Ebola virus. As to conditions: in vitro assays; cited from earlier work.
The test system of series [3] is Vero cells. The series is described as follows: Cytotoxicity, tetrazolium salts-based assay (WST-1), Vero cells. It counts as cell-based, African green monkeys (Chlorocebus sp.). To be noted: all conditions tested (3.13, 12.5, 50 μM). On the technique in general: Formazan colour is commonly taken as a measure of viable cells.
Series [4] deals with SARS-CoV-2. As to the kind of experiment: Antiviral efficacy by RNA copy numbers (qRT-PCR, RdRp gene), co-treatment, Vero cells.
The test system of series [5] is SARS-CoV-2. As to the kind of experiment: Antiviral efficacy by RNA copy numbers (qRT-PCR), co-treatment, Calu-3 human lung cell line. To be noted: Calu-3 cells; for selectivity index, SI / IC50: 48 hours post-infection; for IC50: co-treatment. For orientation: Quantitative PCR measures a nucleic acid by following its amplification.
Series [6] relates to SARS-CoV-2. As to the kind of experiment: Post-infection treatment, viral plaque assay, Calu-3 cells. It counts as cell-based, SARS-CoV-2 (a Korean isolate). As to conditions: Severe acute respiratory syndrome coronavirus 2, Calu-3, 12.5 μM, 48 hours after drug treatment. On the procedure:
In Experimental Example 6, pyronaridine tetraphosphate or artesunate was treated each in Calu-3 cells at 0, 2, 4, 6, 8, 10, 12, 24 and 36 hours after SARS-CoV-2 (a Korean isolate) inoculation, and evaluated how long hours the inhibitory effect of each drug were retained against virus infections.
Calu-3 cells and viruses were prepared in the same manner as shown in Experimental Example 5.
After dissolving pyronaridine tetraphosphate and artesunate in DMSO each, it was diluted to 12.5 μM using media. At 1 hour after the inoculation with SARS-CoV-2 (MOI=0.1), the supernatant was removed, and Calu-3 cells were washed, followed by the addition of DMEM culture media containing 2% bovine serum. The culture media containing drugs were added at 0, 2, 4, 6, 8, 10, 12, 24 and 36 hours each. At 48 hours after each drug treatment, cell supernatants were harvested and a plaque assay—in which the plaques generated by infectious virus infection were counted in Vero cells, cells used for virus amplification—was performed. The DMEM-F12 medium layer containing 2% agarose was laid on the layer of infected Vero cells, and the number of plaques was counted by using counter-staining with crystal violet, after incubation for 72 hours.

The nature of series [7]: Cytotoxicity (WST-1), Calu-3 cells. To be noted: human.
For series [8], the system named is Ebola virus. As to conditions: Vero cells; cited from earlier work.
A further series in a line: in vitro. As to conditions: human.
Series [9] deals with Ebola virus. To be noted: Hela cells; cited from earlier work.
Series [10] relates to Vero cells. As to conditions: cited from earlier work.
The subject of series [11] is SARS-CoV-2. As to the kind of experiment: In vivo antiviral efficacy in SARS-CoV-2-infected hamsters, lung virus titer by plaque assay. As to conditions: 360 mg/kg alone, oral, once at 25 hours post-infection, 4-day post-infection; vehicle control 8.30. Also noted: species or system Syrian hamsters.
The subject of series [12] is Ebola virus. To be noted: cited from earlier work.
The test system of series [13] is Vero cells. As to conditions: African green monkey (Chlorocebus sp.).
Series [14] has as its system SARS-CoV-2. The series is described as follows: Antiviral efficacy by immunofluorescence staining imaging, pretreatment, Vero cells. To be noted: 50 μM, pretreated 1 hour, 24 hours post-infection.
The test system of a further series is Hela cells. To be noted: cited from earlier work.
Where [15] appears, read: added at up to 6 hours post-infection.
Setting [16] is: added at up to 12 hours post-infection.
Setting [17] is: added at up to 24 hours post-infection.
The mark [18] stands for this setting: co-treatment, Vero cells, 24 hours after infection.

Each structure is given as a SMILES string. Where only a bound is given, the exact number is not on record here.

`CCN(CC)CCCC(C)Nc1ccnc2cc(Cl)ccc12` (stereo not drawn) [chloroquine]: the antiviral effect result in the series with Ebola virus [1] is given as “did not show antiviral effect”.

A word on the IC50: it is the concentration needed to halve the response being measured. By inhibition is commonly meant the percentage by which the read-out fell short of the control. Consider `C[C@H]1[C@H](OC(=O)CCC(=O)O)O[C@@H]2O[C@@]3(C)CC[C@H]4[C@H](C)CC[C@@H]1[C@@]24OO3` [artesunate], for which the “antiviral efficacy against Ebola virus” value in the series on Ebola virus [2] is listed as “showed an antiviral efficacy”. Besides, the cytotoxicity entry in the series on Vero cells [3] is listed as “no significant cytotoxicity”. Besides, the inhibition rate came out at 39% with SARS-CoV-2 [4] (3.13 μM, 48 hours post-infection, Vero cells); 40% with SARS-CoV-2 [4] (12.5 μM, 24 hours post-infection, Vero cells); 51% in the series with SARS-CoV-2 [4] (12.5 μM, 48 hours post-infection, Vero cells). Also, the “inhibition rate against virus” value with SARS-CoV-2 [4] (50 μM, Vero cells, co-treatment) came to 83%. For the same compound, the “selectivity index, SI” value in the series with SARS-CoV-2 [5] is recorded as over 220.8. The IC50 in the series with SARS-CoV-2 [5] was determined as 0.45 µM. Moreover, the values for the inhibition at 12.5 µM in the series on SARS-CoV-2 [6] (setting [15]), in the series with SARS-CoV-2 [6] (setting [16]) and in the series with SARS-CoV-2 [6] (setting [17]) were 92 to 96%, over 90% and 48%, respectively. In [7], the CC50 at 48 h was over 100 µM.

For orientation: EC50 means the concentration needed to bring the measured effect to its halfway point. Consider `COc1ccc2nc3cc(Cl)ccc3c(Nc3cc(CN4CCCC4)c(O)c(CN4CCCC4)c3)c2n1` [pyronaridine], for which the “antiviral activity against Ebola virus at a concentration below CC50” value in the series with Ebola virus [8] is listed as “no antiviral activity”. This compound gave a CC50 at 48 h in the series “in vitro” of over 100 µM. Also, the “selectivity index, SI” value in the series with SARS-CoV-2 [4] (Vero cells, co-treatment) is over 1.40; in the series with SARS-CoV-2 [5], over 11.66. For the same compound, the EC50 with SARS-CoV-2 [4] (setting [18]) was 8.27 µM; in the series on Ebola virus [9] it was 0.42 to 1.12 µM. Moreover, in the series with SARS-CoV-2 [4] (setting [18]), the “inhibition at non-cytotoxic concentrations” value was “more than 90%”. Moreover, in the series with SARS-CoV-2 [5], the IC50 came to 8.58 µM. For the same compound, the CC50 was 1.3 µM with Vero cells [10] and 3.1 µM in the series on Hela cells. The “median infectious virus titer in the lung tissues” value with SARS-CoV-2 [11] worked out at 7.22 Log10 PFU. In the series with Ebola virus [12] (Ebola virus-challenged mouse models), the “virus titer and survival rate” value is listed as “significantly improved”. In the series with Ebola virus [12] (mouse models challenged with Ebola virus), the “mortality and viral infection rate” value is given as “significantly inhibited”. Besides, the inhibition at 12.5 µM in the series with SARS-CoV-2 [6] (setting [15]) is over 99%; in the series with SARS-CoV-2 [6] (setting [16]), over 94%; in the series on SARS-CoV-2 [6] (setting [17]), 90%. For the same compound, the “cytotoxicity increased by drug pretreatment” value with Vero cells [13] stood at 17%. In the series on SARS-CoV-2 [14], the virus inhibition rate was 70%.

For the compound `CCN(CCO)CCCC(C)Nc1ccnc2cc(Cl)ccc12` (stereo not drawn) [hydroxychloroquine], in the series on SARS-CoV-2 [4] (monkey cell lines (Vero)), the “antiviral efficacy in the monkey cell lines” value was “showed antiviral efficacy”. For the same compound, the “antiviral effect in the human lung cell lines” value in the series on SARS-CoV-2 [5] (at less than 50 μM) is listed as “no antiviral effect”.
